Measured values: patent publication US7037656B2, “Methods and compositions for identifying ligands for nuclear receptors” (priority 2000, dated 2006)

What was measured:
Test in all cases: Yeast 6x EcRE-lacZ β-galactosidase transactivation assay
Type in all cases: cell-based
Aa EcR = target: T1, Aa EcR (Aedes aegypti, UniProt P49880, DEL155-194); settings: RH 5992 10 μM, 4 hours, DMSO control 2.500
T1 construct: ubiquitin (human, 76 aa) (N, cleaved yes); expressed in transfected cells
Method: (§1) Briefly, yeast cells are cultured in 5 mL of YPD liquid medium overnight at 30° C. The cell culture was diluted 1:20 in YPD media and further grown until cell density reached an O.D of 0.6. at OD600. The cells were pelleted by centrifugation and washed with 10 mL of TE+0.1M lithium acetate. Cells are then resuspended in 10 mL TE+0.1M lithium acetate and incubated at 30° C. for 1 hour. Cells are collected and resuspended in 0.5 mL of TE+ 0.1M lithium acetate. Aliquots of cells (50 μL), were incubated for 15 minutes at 30° C. with 1–2 μg plasmid DNA in the presence of 5 μg of denatured salmon sperm DNA as DNA carrier. In the case of co-transformation, the indicated plasmids were added simultaneously. 50% polyethyleneglycol of molecular weight 4000, diluted in TE, was added to a final concentration of 35%. DMSO was added to the transformation solution simultaneously to a final concentration 3%. The samples were mixed well by vortexing and incubated for an additional 30 minutes at 30° C. The cell mixture is then heated for 15 minutes at 42° C. Cells were then collected and plated onto appropriate yeast selective media. Transformants of 4 plasmids are selected on the complete media without tryptophan, uracil, leucine and histidine.
(§2) The yeast cells grown overnight in selective liquid media at 30° C. were diluted in prewarmed liquid selective media to 0.1 at OD600 (ODculture). 100 μl of the cell culture was spiked to each well of a.96-well microtiter plate. […] After 4 hours of incubation, 100 μl of 2× “Z” Sarcosine-ONPG buffer (120 mM Na2HPO4, 80 mM NaH2PO4, 20 mM KCl, 2 mM MgSO4, 100 mM beta-mercaptoethanol (Sigma), pH 7.0, 0.4% lauroyl sarcosine (Sigma), 4 mg/mL ONPG (Diagnostic Chemicals limited) was added to each well and the plate was further incubated at 37° C. The 2× “Z” Sarcosine-ONPG buffer is freshly prepared or stored at −20° C. prior to use. After incubation at 37° C. for 1 hour. The reaction was stopped by adding 100 μL of quenching solution 0.5 M Na2CO3 and OD405 (ODreaction) and beta-galactosidase activity was measured in a micro plate reader (Biotek) at a wave length of 405–450 nanometers. […]
(§3) Using the transformation method described above, yeast were co-transformed with a reporter gene as shown in FIG. 2 and the expression vector encoding the full-length Aedes aegypti ecdysone receptor, Aa EcR (FIG. 7A) in the presence or absence of the Aa EcR heterodimer partner, Aa USP (a or b form, FIGS. 8A and 8B respectively). […] As the N-terminal portion of the AaEcR receptor is reported to play a role in ligand independent transactivation, an expression vector containing an N-terminal deletion in the Aa EcR was constructed (see FIG. 7B) and assessed in the β-galactosidase assays described above. […]

[1] = target: T2, Aa ΔA/B EcR + Aa USPa + GRIP1 (Aedes aegypti, UniProt P49880); settings: RH 5992 10 μM, 4 hours, DMSO control 0.272
T2 construct: ubiquitin (human, 76 aa) (N, cleaved yes); expressed in transfected cells
Method: as §1, §2, §3

Aa ΔA/B EcR + Aa USPb = target: T3, Aa ΔA/B EcR + Aa USPb (Aedes aegypti, UniProt P49880); settings: RH 5992 10 μM, 4 hours, DMSO control 0.177
T3 construct: ubiquitin (human, 76 aa) (N, cleaved yes); expressed in transfected cells
Method: as §1, §2, §3

[2] = target: T4, Aa ΔA/B EcR + AaUSPb + GRIP1 (Aedes aegypti, UniProt P49880); settings: RH 5992 10 μM, 4 hours, DMSO control 0.240
T4 construct: ubiquitin (human, 76 aa) (N, cleaved yes); expressed in transfected cells
Method: as §1, §2, §3

T1 sequence (P49880 other isoform, or with tags, fused parts or gaps DEL155-194): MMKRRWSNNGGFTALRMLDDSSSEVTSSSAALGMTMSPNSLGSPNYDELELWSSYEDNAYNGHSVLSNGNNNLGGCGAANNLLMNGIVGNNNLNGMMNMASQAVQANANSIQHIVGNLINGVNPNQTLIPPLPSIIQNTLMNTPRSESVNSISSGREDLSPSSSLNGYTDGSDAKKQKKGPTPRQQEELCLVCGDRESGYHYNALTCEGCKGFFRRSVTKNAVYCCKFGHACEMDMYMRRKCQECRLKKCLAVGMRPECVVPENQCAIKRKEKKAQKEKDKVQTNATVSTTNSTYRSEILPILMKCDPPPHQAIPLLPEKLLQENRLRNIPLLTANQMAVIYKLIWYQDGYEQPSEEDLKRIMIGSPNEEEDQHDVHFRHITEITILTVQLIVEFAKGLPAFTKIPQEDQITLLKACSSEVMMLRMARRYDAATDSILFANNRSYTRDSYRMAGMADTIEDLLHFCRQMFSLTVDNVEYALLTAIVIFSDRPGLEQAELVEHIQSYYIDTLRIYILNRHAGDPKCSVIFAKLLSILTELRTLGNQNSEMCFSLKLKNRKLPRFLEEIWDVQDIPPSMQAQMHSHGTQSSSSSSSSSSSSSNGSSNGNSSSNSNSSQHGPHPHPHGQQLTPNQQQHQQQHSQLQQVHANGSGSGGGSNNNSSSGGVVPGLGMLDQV
T2 sequence (P49880 with tags, fused parts or gaps): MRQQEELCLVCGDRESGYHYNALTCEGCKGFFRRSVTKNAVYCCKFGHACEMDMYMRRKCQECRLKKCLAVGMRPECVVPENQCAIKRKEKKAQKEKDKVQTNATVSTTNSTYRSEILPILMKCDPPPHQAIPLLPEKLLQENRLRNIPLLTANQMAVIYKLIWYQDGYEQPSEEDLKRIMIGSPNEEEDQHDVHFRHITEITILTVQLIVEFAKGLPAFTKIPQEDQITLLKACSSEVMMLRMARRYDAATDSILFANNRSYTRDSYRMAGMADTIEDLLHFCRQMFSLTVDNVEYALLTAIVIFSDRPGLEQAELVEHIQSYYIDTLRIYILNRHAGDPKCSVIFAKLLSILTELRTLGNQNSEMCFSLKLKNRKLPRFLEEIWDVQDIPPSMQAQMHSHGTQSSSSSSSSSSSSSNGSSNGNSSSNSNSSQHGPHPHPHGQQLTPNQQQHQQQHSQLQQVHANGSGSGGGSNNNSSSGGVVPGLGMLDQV
T3 sequence (P49880 with tags, fused parts or gaps): as above
T4 sequence (P49880 with tags, fused parts or gaps): as above

With `CCc1ccc(C(=O)NN(C(=O)c2cc(C)cc(C)c2)C(C)(C)C)cc1` [RH 5992, tebufenozide] the β-galactosidase activity (Aa EcR) was 2.750, the β-galactosidase activity [1] was 2.026 and the β-galactosidase activity (Aa ΔA/B EcR + Aa USPb) was 0.184. It also gave a β-galactosidase activity [2] of 2.074.
